# Reference: patent publication US4376785A, “Cyclopropanecarboxylates and a low fish toxic insecticide and/or acaricide containing them” (priority 1980, dated 1983)
# Read-outs that look alike come from different tables or passages of the source.
# How the values were obtained:
# [1] = system: CSMA strain housefly (Musca domestica); test: Topical application to housefly adults, Test example 8; type: in vivo; conditions: topical to ventral thorax, 0.5 μl/adult, female adults, 24 hours
# Protocol: The present compounds as below and reference compounds were each diluted with acetone into test solutions having four different concentrations of active ingredient. Each test solution was topically applied to the ventral throrax of CSMA strain housefly female adults (Musca domestica), at a rate of 0.5 μl/adult by means of a microapplicator.
# The adults were then liberated in a polyethylene cup and fed with milk, sugar and water. After 24 hours, the dead and alive were observed. The median lethal dosage (LD50 μg/adult) was obtained from the morality (3 replications).
# [2] = Toxicity to killifish (TLm48), Test example 1; type: in vivo, Oryzias latipes; conditions: for selectivity ratio: in vivo, TLm48 divided by concentration in water at green rice leafhopper LC50, read-out: Safety coefficient to fishes (a)/(b); for LC50 at 48 h: water, killifish, medium tolerance limit, read-out: Toxicity to fishes TLm48 (a)
# Protocol: Toxicity to killifish (Oryzias latipes) was tested accordig to the test method for toxicity to fishes described in Notification B No. 2735 of the Ministry of Agriculture and Forestry (Nov. 25, 1965). Namely, each of the present compounds (1), (2), (4), (5), (6), (8), (9), (11) and reference compounds was dissolved or suspended in "Tween 80" and diluted successively with dechlorinated tap water. Ten killifish (0.2-0.3 g per fish) were released in a 10-liter glass vessel containing 5 liters of each preparation.
# In order to make it clearer that the present compounds have a low toxicity to fishes as well as a high insecticidal activity, a safety coefficient to fishes was calculated from the test results of toxicity to fishes and insecticidal activity. [formula]
# A detailed explanation will be given to a method of how to calculate the safety coefficient. In the case of green rice leafhoppers, calculation was based on the concentration of active ingredient in water obtained by applying a test solution containing the active ingredient in an amount corresponding to LC50 (ppm) to a flooded paddy field 5 cm deep at a rate of 100 liter/10 are, provided that all the active ingredient applied entered the water.
# For example, the safety coefficient to fishes of the present compound (1) is calculated as follows: The quantity of water in a flooded paddy field 5 cm deep and 10 are in area is 50 tons; when a test solution containing the active ingredient in an amount corresponding to LC50 (ppm) is added to the paddy field at a rate of 100 liter/10 are the concentration of the active ingredient in water (hereinafter referred to as (b)) is 0.008 pp; as the toxicity to fishes [TLm48 (ppm)] (hereinafter referred to as (a)) is >2.0 ppm, said coefficient can be calculated by dividing (a) by (b). In this case, the coefficient is >250, which means that the present compound (1) has a safety higher than 250-fold.
# [3] = system: carmine mites (Tetranychus cinnabarinus); test: Damage to rice plants by carmine mites, Test example 4; type: in vivo; conditions: 500 ppm spray, after 10 days
# Protocol: The emulsifiable concentrate of each of the present compounds (3), (5), (9) and (11) prepared in Preparation example 1 was diluted with water so that the concentration of the active ingredient was 500 ppm. The dilute liquor was thoroughly sprayed on rice plants (grown in a 1/10,000 are Waner's pot) on which carmine mites (Tetranychus cinnabarinus) in all stages were made parasitic.
# [4] = system: green rice leafhopper (Nephotettix cincticeps), R-strain; test: Insecticidal activity against green rice leafhopper, sprayed rice plants, Test example 1; type: in vivo; conditions: green rice leafhopper female adults, spray on rice plant, 26° C., 24 hours
# Protocol: The emulsifiable concentrates of the present compounds and reference compounds prepared in Preparation example 1 were each formulated into test solutions having four different concentrations of active ingredient between 500 ppm and 0.5 ppm. Each test solution was sprayed on a rice plant in a 180-ml plastic cup which had elapsed one month after sowing, at a rate of 15 ml/2 cups by means of a turn table. After air-drying, the rice plate was covered with a wire-screen cage, and 15 female adults of green rice leafhopper (Nephotettix cincticeps) (a strain resistant to carbamates and organo-phosphates, hereinafter referred to as R-strain) were liberated therein. The plant was placed in an artificial climate chamber kept at 26° C. After 24 hours, the dead and alive were examined. The median lethal concentratin [LC50 (ppm)] was calculated from the mortality determined by 3 replications. […]
# [5] = system: housefly (Musca domestica); test: Housefly mortality, treated filter paper with bait, Test example 7; type: in vivo; conditions: 0.7 ml on filter paper, housefly female adults, 48 hours
# Protocol: The emulsifiable concentrate obtained in preparation Example 1 was diluted 200 times with water (corresponding to 500 ppm of the active ingredient). On the bottom a polyethylene cup of 5.5 cm in diameter was placed a piece of filter paper of the same size, and 0.7 ml of the above dilute liquor was dropped on the filter paper. Sucrose (30 mg) was placed on the paper as bait. Thereafter, 10 housefly female adults (Musca domestica) were liberated in the cup which was then covered with a lid. After 48 hours, the dead and alive were counted to obtain mortality (4 replications).
# [6] = system: killifishes (Oryzias latipes); test: Simulated paddy field box test, killifish survival, Test example 6; type: in vivo; conditions: wettable powder, 100 ppm, 100 liter/10 are, water depth 5 cm, after 48 hours
# Protocol: (§1) The wettable powder of each of the present compounds (1), (3), (5), (6) and (11) prepared in Preparation example 4 was diluted with water so that the concentration of active ingredient was 100 ppm. Soil was placed in a plastic box [5 m×5 m×2 m (deep)] to a level of 50 cm from the bottom, and rice plants about 50 cm high were transplanted at invervals of 50 cm. Water was then placed in the box so that water depth was 5 cm, and 20 killifishes (Oryzias latipes) were liberated therein. Thereafter, the above dilute solution was sprayed on the box at a rate of 100 liter/10 are. The solution fell on the rice plants as well as on the water surface.
# (§2) One hour after treatment, 100 female adults of green rice leafhopper (Nephotettix cincticeps) were liberated in the box which was immediately covered with a net.
# [7] = system: green rice leafhopper (Nephotettix cincticeps); test: Residual effect test, Text example 5; type: in vivo; conditions: 20 cc per pot, 24 hours
# Protocol: The emulsifiable concentrate of each of the present compounds (5) and (11) prepared in Preparation example 1 was diluted with water so that the conentration of active ingredient was 400 ppm. Thereafter, 20 cc of the dilute solution was sprayed on rice plants grown in a 1/10,000 are Wagner's pot. The rice plants were air-dried and covered with a wire-screen cage, and 15 female adults of green rice leafhopper (Nephotettix cincticeps) were liberated therein. After 24 hours, the dead and alive were examined to obtain mortality. In order to examine the residual effect, the pot was then left as it was for 7 days, and the test insects were liberated in the same manner as above. After 24 hours, the mortality was examined. The experiment was carried out in a greenhouse and the number of replications was three.
# [8] = system: green rice leafhopper (Nephotettix cincticeps); test: Simulated paddy field box test, green rice leafhopper, Test example 6; type: in vivo; conditions: wettable powder, 100 ppm, 100 liter/10 are, after 48 hours
# Protocol: as §1, §2
# [9] = system: yellow fever mosquito (Aedes aegypti); type: in vivo; conditions: 50 mg of granules (Preparation example 6) in 100 ml water, full grown larvae, after 24 hours
# Protocol: Fifty milligrams of each of the granules of the present compounds (5) and (11) obtained in Preparation example 6 was placed in a 100-ml beaker containing 100 ml of distilled water, and 30 full grown larvae of yellow fever mosquito (Aedes aegypti) were liberated therein. After 24 hours, 100% of the larvae could be killed.
Compound,LD50 [1],selectivity ratio [2],LC50 at 48 h [2],LC50 [4],mortality at 500 ppm [5],other results
"CC1(C)C(C(=O)OC(C#N)c2cccc(Oc3ccc(Br)cc3)c2)C1C(Br)C(Cl)(Cl)Br (stereo not drawn) [(D), reference compound]",0.063 μg/adult,,,,,
"CC1(C)[C@H](C(=O)OC(C#N)c2ccc(F)c(Oc3ccc(Cl)cc3)c2)[C@H]1C(Br)C(Cl)(Cl)Br (stereo partly drawn) [compound (9), 3-(4-Chlorophenoxy)-4-fluoro-α-cyanobenzyl d-trans-2,2-dimethyl-3-(1,2-dibromo-2,2-dichloroethyl)cyclopropanecarboxylate]",0.018 μg/adult,> 333,> 1 µg/mL,1.5 ppm,100%,damage to rice plants by carmine mites [3]: the spreading of the damage could be prevented
"CC1(C)C(C(=O)OC(C#N)c2ccc(F)c(Oc3ccc(Br)cc3)c2)C1C(Br)C(Cl)(Cl)Br (stereo not drawn) [(11), 3-(4-bromphenoxy)-4-fluoro-α-cyanobenzyl 2,2-dimethyl-3-(1,2-dibromo-2,2-dichloroethyl)cyclopropanecarboxylate]",,> 200,> 2 µg/mL,4.7 ppm,,"killifishes alive [6]: all of the killifishes were alive; mortality at 400 ppm ([7]; insects liberated 7 days after treatment, read-out: Mortality, effect 7 days after treatment): 100%; mortality at 400 ppm ([7]; read-out: Mortality, effect immediately after treatment): 100%; green rice leafhoppers alive [8]: no alive green rice leafhoppers were found; larvae killed [9]: 100%; damage to rice plants by carmine mites [3]: the spreading of the damage could be prevented"
"CC1(C)[C@H](C(=O)OC(C#N)c2ccc(F)c(Oc3ccc(Br)cc3)c2)[C@@H]1C(Br)C(Cl)(Cl)Br (relative stereo) [compound (2), 3-(4-Bromophenoxy)-4-fluoro-α-cyanobenzyl dl-cis-2,2-dimethyl-3-(1,2-dibromo-2,2-dichloroethyl)cyclopropanecarboxylate]",,> 167,> 2 µg/mL,6.0 ppm,,
"CC1(C)C(C(=O)OC(C#N)c2cccc(Oc3ccc(Cl)cc3)c2)C1C(Br)C(Cl)(Cl)Br (stereo not drawn) [(C), reference compound]",0.062 μg/adult,,,,,
"CC1(C)[C@H](C(=O)OC(C#N)c2ccc(F)c(Oc3ccc(Cl)cc3)c2)[C@@H]1C(Br)C(Cl)(Cl)Br (relative stereo) [compound (7), 3-(4-Chlorophenoxy)-4-fluoro-α-cyanobenzyl dl-cis-2,2-dimethyl-3-(1,2-dibromo-2,2-dichloroethyl)cyclopropanecarboxylate]",,,,,100%,
"CC1(C)C(C(=O)OC(C#N)c2ccc(F)c(Oc3ccc(Br)cc3)c2)C1C(Br)C(Br)(Br)Br (stereo not drawn) [compound (3), 3-(4-Bromophenoxy)-4-fluoro-α-cyanobenzyl 2,2-dimethyl-3-(1,2,2,2-tetrabromoethyl)cyclopropanecarboxylate]",,,,,,killifishes alive [6]: all of the killifishes were alive; green rice leafhoppers alive [8]: no alive green rice leafhoppers were found; damage to rice plants by carmine mites [3]: the spreading of the damage could be prevented
"CC1(C)[C@H](C(=O)OC(C#N)c2ccc(F)c(Oc3ccc(Cl)cc3)c2)[C@H]1C(Br)C(Cl)(Cl)Br (relative stereo) [compound (6), 3-(4-Chlorophenoxy)-4-fluoro-α-cyanobenzyl dl-trans-2,2-dimethyl-3-(1,2-dibromo-2,2-dichloroethyl)cyclopropanecarboxylate]",0.031 μg/adult,> 200,> 1 µg/mL,2.7 ppm,100%,killifishes alive [6]: all of the killifishes were alive; green rice leafhoppers alive [8]: no alive green rice leafhoppers were found
"CC1(C)C(C(=O)OC(C#N)c2ccc(F)c(Oc3ccc(Cl)cc3)c2)C1C(Br)C(Br)(Br)Br (stereo not drawn) [compound (8), 3-(4-Chlorophenoxy)-4-fluoro-α-cyanobenzyl 2,2-dimethyl-3-(1,2,2,2-tetrabromoethyl)cyclopropanecarboxylate]",,> 83,> 1 µg/mL,5.8 ppm,100%,
"CC1(C)[C@H](C(=O)OC(C#N)c2ccc(F)c(Oc3ccc(Br)cc3)c2)[C@@H]1C(Br)C(Br)(Br)Br (stereo partly drawn) [compound (4), 3-(4-Bromophenoxy)-4-fluoro-α-cyanobenzyl d-cis-2,2-dimethyl-3-(1,2,2,2-tetrabromoethyl)cyclopropanecarboxylate]",,> 154,> 2 µg/mL,6.3 ppm,,
"CC1(C)[C@H](C(=O)OC(C#N)c2ccc(F)c(Oc3ccc(Cl)cc3)c2)[C@@H]1C(Br)C(Cl)(Cl)Br (stereo partly drawn) [compound (10), 3-(4-Chlorophenoxy)-4-fluoro-α-cyanobenzyl d-cis-2,2-dimethyl-3-(1,2-dibromo-2,2-dichloroethyl)cyclopropanecarboxylate]",0.030 μg/adult,,,,100%,
"CC1(C)C(C(=O)OC(C#N)c2cccc(Oc3ccccc3)c2)C1C(Br)C(Cl)(Cl)Br (stereo not drawn) [(A), reference compound]",,50,,5.0 ppm,,
"CC1(C)C(C=C(Cl)Cl)C1C(=O)OC(C#N)c1ccc(F)c(Oc2ccccc2)c1 (stereo not drawn) [(B), reference compound]",,< 2,< 0.01 µg/mL,2.5 ppm,,
